A short description of data set [1]: Test Example 1: plasma level after single intravenous, subcutaneous and oral administration. The data set is classed as in vivo, male SD rats. The conditions noted are these: for bioavailability / Cmax / Tmax / AUC: rat, plasma, fasted male SD rats; for bioavailability: read-out: F (bioavailability); for AUC: trapezoidal method. The method, then:
0.5 mg/kg of the (−) isomer of the present compound (hydrochloride) (1 mL/kg of 0.5 mg/mL aqueous solution in physiological saline) was administered to the tail vein of each of male SD rats fasted since the previous day, and 5 minutes, 10 minutes, 20 minutes, 30 minutes, 45 minutes, 1 hour, 1.5 hours, 2 hours, 3 hours, 4 hours, and 6 hours after administration, whole blood was collected from the abdominal aorta.
1 mg/kg of the (−) isomer of the present compound (hydrochloride) (5 mL/kg of 0.2 mg/mL aqueous solution) was administered subcutaneously to the back of the neck of each of male SD rats fasted since the previous day, and 5 minutes, 10 minutes, 20 minutes, 30 minutes, 1 hour, 1.5 hours, 2 hours, 3 hours, 4 hours, 6 hours, 8 hours and 10 hours after administration, whole blood was collected from the abdominal aorta.
10 mg/kg of the (−) isomer of the present compound (hydrochloride) (10 mL/kg of 1 mg/mL aqueous solution) was administered forcedly orally to male SD rats fasted since the previous day, and 5 minutes, 10 minutes, 20 minutes, 30 minutes, 1 hour, 1.5 hours, 2 hours, 3 hours, 4 hours, 6 hours, 8 hours and 10 hours after administration, whole blood was collected from the abdominal aorta.
The blood collected from each rat was transferred to a blood collecting tube containing 2Na EDTA, then sufficiently mixed by turning the tube upside down, and then centrifuged at 3,000 rpm for 10 minutes, and the obtained plasma was recovered. The plasma was freeze-preserved at −20° C. until analysis. The plasma level of the compound was measured by high performance liquid chromatography (HPLC). As a pharmacokinetic parameter, AUCO-t (area under the blood level-time curve, hereinafter referred to as “AUC”) was calculated by a trapezoidal method, and Cmax (maximum blood concentration) and tmax (time-to-maximum blood concentration) were determined from actual measurement values.

Data set [2] is described as follows: Test Example 4: plasma and brain homogenate concentrations after oral and intraoral administration. Type of data set: in vivo, male SD rats. The conditions noted are these: rats. As to the method:
The (−) isomer of the present compound (hydrochloride) was administered forcedly orally in a dose of 10 mg/kg (10 mL/kg of 1 mg/mL aqueous solution) to fasted male SD rats, and 5, 15, 30, 60 and 120 minutes after administration, whole blood was collected from the abdominal aorta.
The (−) isomer of the present compound (hydrochloride) was dropped in a dose of 1 mg/kg (0.1 mL/kg of 10 mg/mL aqueous solution) into the oral cavity of each fasted male SD rat anesthetized under ether. In the case of the powder preparation, the preparation which had been weighed so as to be in a dose of 1 mg/kg was placed beneath the tongue of each rat under anesthesia. In either case, the rats were left for 1 minute under anesthesia and then returned to cages, and 5, 15, 30, 60 and 120 minutes after administration, whole blood was collected from the abdominal aorta.
The blood collected from each rat was treated in the same manner as in Test Example 1. After blood collection, blood in the body of each rat was perfused with refrigerated physiological saline, and the cerebrum was excised therefrom. The cerebrum was cut thin with a knife and homogenized in 5 mL physiological saline added per gram of the tissues. 0.5 mL acetonitrile was added to 0.5 mL of the brain homogenate which was then stirred by means of a test tube mixer and centrifuged at 10,000 rpm for 5 minutes, to give a supernatant.
The concentrations of the compound in the plasma and in the brain homogenate were measured by LC/MS/MS. Simultaneously, the metabolites were quantitatively determined by using metabolite standards.

Setting [3] is: intraoral 1 mg/kg vs oral 10 mg/kg.

Each structure is given as a SMILES string. Counter-ions that a name gives are not always drawn. Like-named read-outs stand apart in the source and are kept apart here.

Consider `CCCNC(CCC)Cc1cc2ccccc2o1` (single isomer, unassigned; (-)) [(−) isomer of the present compound (hydrochloride), (−)-1-(benzofuran-2-yl)-2-propylaminopentane], for which the “blood level in the oral administration” value in data set [1] (oral 10 mg/kg, rats) is “low as compared with the given dose”. Also, in data set [1] (sc, subcutaneous, 1 mg/kg), the bioavailability was 144%, the Cmax is 135 ng/mL, the Tmax was determined as 10.2 min and the AUC worked out at 231 ng·h/mL. In data set [1] (oral, 10 mg/kg), the bioavailability worked out at 4.1%, the highest level (Cmax) was 86.9 ng/mL, the Tmax stood at 10.2 min and the AUC came to 65.4 ng·h/mL. In data set [1] (intravenous, 0.5 mg/kg), the Cmax is 94.1 ng/mL, the Tmax amounted to 4.8 min and the AUC amounted to 80 ng·h/mL. In addition, in data set [2] (intraoral 1 mg/kg (aqueous solution, powder preparation) vs oral 10 mg/kg), the “blood concentration in intraoral administration compared with oral administration” value is given as “equal to or higher than that in the oral administration”. In data set [2] (setting [3]), the “metabolites in intraoral administration compared with oral administration” value is given as “lower metabolites” and the “transferability of the compound to the brain (concentration in the brain homogenate)” value is “significantly higher than in the oral administration”.

The values are drawn from patent US20100137429A1, “COMPOSITION FOR T[…] TRANSMUCOSAL ADMINISTRATION” (FUJIMOTO CO., LTD., priority 2007, published 2010).
